Earlier results on two compounds are cited in patent publication US6506736B1, “Method for obtaining and using a combination of a purine nucleotide and nitrogen monoxide donor for treating sexual dysfunction” (priority 1998, dated 2003).

The test system of data set [1] is erectile dysfunction. The note with it: 2800 mg L-arginine per day.
The subject of data set [2] is erection. The note with it: dogs; intravenous injection.

`N=C(N)NCCC[C@H](N)C(=O)O` [L-arginine]: the “cases with favorable effect on erectile dysfunction” value in data set [1] was “approximately 40%”.
As to `Nc1ncnc2c1ncn2[C@@H]1O[C@H](COP(=O)(O)OP(=O)(O)OP(=O)(O)O)[C@@H](O)[C@H]1O` [adenosine triphosphate], the induction of erection result in data set [2] was “induces erection”.
